Assay results: patent US20090221683A1, “Combination of CXCR4 Antagonist and Morphogen to Increase Angiogenesis” (Caritas St.Elizabeth Medical Center of Boston, Inc, priority 2005, published 2009)
Where two headings read alike, the source gives them in different places.

Legend:
peripheral blood EPCs = test system: peripheral blood EPCs
Procedure: (§1) Peripheral blood mononuclear cells (PBMNCs) were isolated from 500 μl of peripheral blood obtained from each mouse. PBMNCs were cultured in EBM media (Clonetics, San Diego, Calif.) supplemented with 5% fetal bovine serum (FBS), antibiotics, and growth factors (EPC medium) on four 4-well glass slides coated with rat plasma vitronectin (Sigma) in 0.5% gelatin solution. Four days after culture, EPCs, recognized as attaching spindle-shaped cells, were assayed by co-staining with acetylated LDL (acLDL)-DiI (Biomedical Technologies, Stoughton, Mass.) and Bandeiraea simplicifolia (BS-1) lectin I (Vector Laboratories, Burlingame, Calif.), characteristics indicators of endothelial lineage, and conjugated with FITC (Sigma). Fluorescent microscopy identified double-positive cells as […] The numbers of double-positive cells per sample, measured in fifteen fields under 20× magnification, was were counted per sample in a blinded manner.
At each time point after the induction of MI, mononuclear cells were isolated from peripheral blood and total BM cells that had been obtained by flushing the tibias and femurs. EPCs were counted by culturing as described in Example 1, and stained with both acLDL-DiI and BS-1 lectin. Double positive cells were counted in 15 fields under objective 20× magnification per sample in a blinded manner.

[1] = test system: bone marrow derived EPCs (X-gal positive cells); details: Tie2-LacZ/BMT mice
Source text: (§2) Such methods can be used for study of the compositions and methods of the instant invention.
as §2

[2] = test system: bone marrow EPCs (Sca-1/Flk-1 positive) of MMP-9-/- mice; details: 1 week after MI
Source text: MMP-9 expression was disrupted by deleting of most of exon 2 of the MMP-9 gene in the 129/SvEv genetic background (Jackson), as described previously. [Vu, 1998 #2370] […] Mononuclear cells from peripheral blood and total BM cells were isolated one week after MI and were examined by FACS analysis as described above.

[3] = test system: border zone between scar and normal tissue capillaries; assay: Chronic MI rats: capillary density in the border zone; type: in vivo, rat; details: 4 weeks after treatment
Procedure: (§3) Methods: Using wild-type rats, MI was induced by ligation of the left anterior descending artery. […] 4 weeks after treatment, echocardiography, hemodynamic measurement and histological examination were performed.

[4] = test system: peripheral blood MNCs and EPCs
Procedure: as §1, §2

MMP-2 mRNA = details: one week after MI; RT-PCR
Procedure: (§4) RNA was extracted from mononuclear cells isolated from bone marrow using TRIzol reagent (Invitrogen) according to the manufacture's instruction. Reverse transcriptase-polymerase chain reaction (RT-PCR) of the MMP-9 and GAPDH genes was performed using 1 pg of total RNA. PCR was performed for 25 cycles for both MMP-9 and GAPDH; each cycle maintained 94° C. for 30 seconds and 64° C. for three minutes. Amplification was carried out in 20-μl reaction mixtures containing 0.4 U Taq polymerase.

MMP-9 mRNA = details: one week after MI; RT-PCR
Procedure: as §4

circulating EPC = details: 2 hour after treatment; 240 μg/kg SC
Procedure: as §3

[5] = test system: bone-marrow derived endothelial cells (double-positive cells); details: one week after AMI
Source text: as §2
Apex-sections from the Tie-2/LZ/BMT mice were embedded in OCT compound (Miles Scientific) and snap-frozen in liquid nitrogen for fluorescence microscopy immediately after sacrifice.
Sections of ischemic (FIGS. 12A-12F) and intact (FIGS. 13A-13F) myocardium were stained for both BS lectin 1 (green fluorescence) and β-galactosidase (red fluorescence). […] Such methods can be used for study of the compositions and methods of the instant invention.

mice with AMI = test system: mice with AMI
Procedure: (§5) Eight-week old male FVB mice were anesthetized with sodium pentobarbital (50 mg/kg IP). The animals were intubated orally with a 22G IV catheter and artificially ventilated with a respirator (Harvard Apparatus). A left intercostal thoracotomy was performed and the ribs were retracted with 5-0 polypropylene sutures. After the pericardium was opened, the left anterior descending (LAD) branch of the left coronary artery was ligated proximal to the bifurcation between the LAD and the diagonal branch using 8-0 polypropylene sutures and visualized with a dissecting microscope. Positive end-expiratory pressure was applied to fully inflate the lungs, and the chest was closed with 7-0 polypropylene sutures. […] After physiological assessment at one, two and four weeks after MI, a subgroup of the mice were euthanized by intravenous administration of a lethal dose of pentobarbital.
All values were expressed as mean±the standard error of the mean. […] Overall survival of all the mice was assessed by Kaplan-Meier analysis. Survival in individual experimental groups was also analyzed by Fisher's extract probability test. A p value of less than 0.05 was considered statistically significant.

[6] = test system: FVB mice with myocardial infarction; details: for FS (fractional shortening) / LVDd (left ventricular diastolic dimension) / LVDs (left ventricular systolic dimension) / LV + dP/dt / LV − dP/dt / LVEDP (left ventricular end-diastolic pressure) / LVSP (left ventricular systolic pressure): mean ± SE
Procedure: as §5
Transthoracic echocardiography (SONOS 5500, Hewlett Packard) was performed just before MI and one, two and four weeks after MI. Left ventricular diastolic (LVDd) and systolic (LVDs) dimensions and fractional shortening were measured at the mid-papillary muscle level. Hemodynamic measurements were obtained at two and four weeks after MI using a 1.0-French high-fidelity pressure catheter (Millar Instruments, Houston, Tex.) via the left carotid artery. LV systolic pressure and maximal positive (+dP/dt) and negative (−dP/dt) pressure development were recorded after stabilization of LV function and heart rate. Such methods can be used for study of the compositions and methods of the instant invention.

[7] = test system: peripheral blood EPCs (Sca-1/Flk-1 positive); details: one week after MI
Procedure: (§6) Fluorescence-activated cell sorting (FACS) was used to identify EPCs from mononuclear cells isolated both from peripheral blood and bone marrow. The viable mononuclear cell population was analyzed for the expression of Sca-1-FITC (Pharmingen) and Flk-1 (Santa Cruz) conjugated with the corresponding phycoerythrin-labeled secondary antibody (Sigma). Isotype-identical antibodies served as negative controls. Immunofluorescence-labeled cells were fixed with 2% paraformaldehyde and analyzed by quantitative flow cytometry using a FACStar flow cytometer (Becton Dickinson) and Cell Quest Software that counted 10,000 events per sample.

[8] = test system: bone marrow EPCs (Sca-1/Flk-1 positive); details: one week after MI
Procedure: as §6

[9] = test system: left ventricular myocardium border zone capillaries; details: two weeks after AMI
Procedure: (§7) The explanted hearts of sacrificed mice were sliced in a bread-loaf fashion into transverse sections from apex to base (base-, mid-, and apex-portions) and fixed with 4% paraformaldehyde. Tissues were embedded in paraffin and sectioned for elastic tissue/trichrome staining and immunohistochemistry using the murine-specific EC marker Bandeiraea simplicifolia lectin I (Isolectin B4) (Vector laboratories).
(§8) Capillary density was assessed by histological examination of five randomly selected fields of tissue sections from segments of the left ventricular myocardium served by the occluded LAD. Capillaries were recognized as tubular structures positive for isolectin B4. Elastic tissue/trichrome-stained tissues from the mice four weeks after MI were used to measure the average ratio of the external circumference of fibrosis area to LV area.

left ventricle fibrosis = details: two weeks after AMI
Procedure: as §7, §8

[10] = 1 week after MI, 125 μg s.c. single injection
[11] = 2 weeks after MI, 125 μg s.c. single injection
[12] = 2 weeks after MI, 125 μg s.c. single injection, listed as AMD
[13] = 2 weeks after MI, listed as AMD
[14] = 4 weeks after MI, 125 μg s.c. single injection
[15] = 4 weeks after MI, 125 μg s.c. single injection, listed as AMD
[16] = 4 weeks after MI, listed as AMD

Structure (SMILES): c1cc(CN2CCCNCCNCCCNCC2)ccc1CN1CCCNCCNCCCNCC1 [AMD-3100, 1,1′-[1,4-phenylene-bis(methylene)]-bis-1,4,8,11-tetraazacyclotetradecane]
- number of cultured EPCs (peripheral blood EPCs; four weeks after AMI): returned to basline
- number of EPCs in the peripheral blood (cultured, acLDL-DiI/BS-1 lectin double positive) (peripheral blood EPCs; one week after AMI): 868±210 /mm^2
- number of EPCs in the peripheral blood (cultured, acLDL-DiI/BS-1 lectin double positive) (peripheral blood EPCs; two weeks after AMI): 556±47 /mm^2
- number of X-gal positive cells in infarct and border area ([1]; 1 week after AMI): 3776±113 /mm^2
- number of X-gal positive cells in infarct and border area ([1]; 2 weeks after AMI): 1906±138 /mm^2
- difference in Sca-1/Flk-1 positive BM cells versus saline [2]: no significant difference
- capillary density in the border zone between scar and normal tissue, increase vs. control [3]: +52%
- maximal MNCs and EPCs (acLDL uptake and BS-1 lectin double-positive cells) ([4]; 1 hour after single s.c. injection of 125 μg, n=5 experiments): 613±89 cells/mm^2
- time for number of EPCs/MNCs to return to baseline after injection ([4]; single s.c. injection of 125 μg): ≤ 24 h
- MMP-2 mRNA expression in BM-mononuclear cells (MMP-2 mRNA): but not MMP-2
- MMP-9 mRNA expression in BM-mononuclear cells (MMP-9 mRNA): enhanced expression
- circulating EPC counts relative to baseline (circulating EPC): five
- double-positive cells (BS lectin 1 and β-galactosidase) ([5]; a representative section): eight
- double-positive cells (BS lectin 1 and β-galactosidase) ([5]; another representative section): eight
- mice still living (survival rate) (mice with AMI; 14 weeks after AMI, FIG. 4A): 64%
- mice died (mice with AMI; another group of mice, four weeks after MI, FIG. 4B): 42%
- survival rate versus mice receiving saline (mice with AMI; four weeks after MI, P<0.05): higher
- FS (fractional shortening) [6, 10]: 35 ± 2%
- LVDd (left ventricular diastolic dimension) [6, 10]: 3.5 ± 0.1 mm
- LVDs (left ventricular systolic dimension) [6, 10]: 2.2 ± 0.1 mm
- FS (fractional shortening) [6, 11]: 34±1%
- LVDd (left ventricular diastolic dimension) [6, 11]: 3.8±0.1 mm
- LVDs (left ventricular systolic dimension) [6, 11]: 2.5±0.1 mm
- FS (fractional shortening) [6, 12]: 34±1%
- LVDd (left ventricular diastolic dimension) [6, 12]: 3.8 ± 0.1 mm
- LVDs (left ventricular systolic dimension) [6, 12]: 2.5 ± 0.1 mm
- LVDd (left ventricular diastolic dimension) ([6]; 2 weeks after MI, 125 μg s.c. single injection, listed as AMD3100): 3.8±0.1 mm
- LV + dP/dt ([6]; 2 weeks after MI): 3383±104 mm Hg/s
- LV − dP/dt ([6]; 2 weeks after MI): 2213±113 mm Hg/s
- LVEDP (left ventricular end-diastolic pressure) ([6]; 2 weeks after MI): 1.6±0.4 mmHg
- LVSP (left ventricular systolic pressure) ([6]; 2 weeks after MI): 71±2 mmHg
- LV − dP/dt [6, 13]: 2842 ± 200 mm Hg/s
- LVEDP (left ventricular end-diastolic pressure) [6, 13]: 1.5±0.2 mmHg
- LVSP (left ventricular systolic pressure) [6, 13]: 73 ± 3 mmHg
- LVDs ([6]; 3 wks post-MI (as printed in text)): 2.5±0.2 mm
- LVDd (left ventricular diastolic dimension) [6, 14]: 4.0±0.1 mm
- LVDs (left ventricular systolic dimension) [6, 14]: 2.6±0.2 mm
- FS (fractional shortening) [6, 15]: 28±1%
- LVDd (left ventricular diastolic dimension) [6, 15]: 4.0 ± 0.1 mm
- LVDs (left ventricular systolic dimension) [6, 15]: 2.9 ± 0.1 mm
- LV − dP/dt ([6]; 4 weeks after MI): 2213 ± 112 mm Hg/s
- LV + dP/dt [6, 16]: 3383±104 mm Hg/s
- LVEDP (left ventricular end-diastolic pressure) [6, 16]: 1.6±0.4 mmHg
- LVSP (left ventricular systolic pressure) [6, 16]: 71±2 mmHg
- FS (fractional shortening) ([6]; Before MI (baseline)): 52 ± 1%
- LVDd (left ventricular diastolic dimension) ([6]; Before MI (baseline)): 2.8 ± 0.1 mm
- LVDs (left ventricular systolic dimension) ([6]; Before MI (baseline)): 1.4 ± 0.1 mm
- difference in left ventricular systolic pressure (LVSP) between the groups ([6]; two weeks after MI): no significant difference
- EPCs (Sca-1/Flk-1 positive) in peripheral blood mononuclear cells by FACS [7]: 11.3±1.4%
- EPCs (Sca-1/Flk-1 positive) in BM mononuclear cells by FACS [8]: 1.9±0.1%
- capillary density in the border zone [9]: 4005±189 /mm^2
- fibrosis area of left ventricle (left ventricle fibrosis): 25±6%
